Experimental data from US6605712B1, “Gene transcription and ionizing radiation: methods and compositions” (Arch Development Corporation, priority 1990, dated 2003).
“Also recorded” adds a separate entry of the source.

Key:
HL-205 cells = experiment: Northern analysis of c-Jun mRNA; type: cell-based, human
Method: (§1) Cell culture. Clone HL-205 was isolated from the human HL-60 myeloid leukemia cell line. The phorbol ester-resistant variant of HL-60 cells, designated HL-525, was isolated by exposing wild-type cells to low concentrations of 12-0-tetradecanoylphorbol-13-acetate (TPA; 0.5 to 3 nM) for 102 passages. These cells were maintained in RPMI 1640 medium containing 20% fetal bovine serum (FBS) with 1 mM L-glutamine, 100 U/ml penicillin and 100 μg/ml streptomycin. Irradiation was performed at room temperature using a Gamma cell 1000 (Atomic Energy at Canada Ltd., Ontario) with a ^137CS source emitting at a fixed dose rate of 14.3 Gray (Gy)/min as determined by dosimetry.
(§2) Isolation and analysis of RNA. Total cellular RNA was purified by the guanidine isothiocyanate-cesium chloride technique. The RNA was analyzed by electrophoresis through 1% agarose-formaldehyde gels, transferred to nitrocellulose filters, and hybridized to the following 32P-labeled DNA probes: 1) the 1.8-kb BamHI/EcoRI insert of a human c-Jun gene purified from a pBluescript SK(+) plasmid; 2) the 1.5-kb EcoRI fragment of the murine Jun-B cDNA from the p465.20 plasmid; 3) Jun-D; 4) the 0.9-kb ScaI/NcoI insert of human c-fos gene purified from the pc-fos-1 plasmid; 5) the 2.0-kb PstI insert of a chicken β-actin gene purified from the pA1 plasmid; and 6) the 1.9-kb BamHI/PstI insert of a human TNF cDNA purified from the pE4 plasmid. Hybridizations were performed at 42° C. for 24 h in 50% (v/v) formamide, 2×SSC, 1×Denhardt's solution, 0.1% SDS, and 200 μg/ml salmon sperm DNA. The filters were washed twice in 2×SSC-0.1% SDS at room temperature and then in 0.1×SSC-0.1% SDS at 60° C. for 1 hour.

HL-525 cells [1] = experiment: Northern analysis of c-Jun mRNA; type: cell-based, human
Method: as §1, §2

HL-525 cells [2] = experiment: Nuclear run-on assay of c-Jun transcription; type: cell-based, human; settings: radiation alone 4-fold increase
Method: Nuclear run-on assays. Nuclei were isolated from 10^8 cells and suspended in 100 μl glycerol buffer (50 mM Tris-HCl, pH 8.3, 40% glycerol, 5 mM MgCl2, and 0.1 mM EDTA). An equal volume of reaction buffer (10 mM Tris-HCl, ph 8.0, 5 mM MgCl2, 100 mM KCl, 1 mM ATP, 1 mM CTP, 1 mM GTP, and 5 mM dithiothreitol) was added to the nuclei in suspension and incubated at 26° C. for 30 min with 250 μCi [α-^32P]UTP (3000 Ci/mmol; Dupont, Boston, Mass.). The nuclear RNA was isolated as described and hybridized to the following DNAs: 1) a PstI digest of the pA1 plasmid containing a fragment of the chicken β-action gene; and 2) a BamHI/EcoRI digest of the pBluescript SK(+) plasmid containing a fragment of the human c-Jun gene. The digested DNAs were run in 1% agarose gels and transferred to nitrocellulose filters. Hybridizations were performed with 10^7 cpm of ^32P-labeled RNA/ml in 10 mM Tris-HCl, ph 7.5, 4×SSC, 1 mM EDTA, 0.1% SDS, 2×Denhardt's solution, 40% formamide, and 100 μg/ml yeast tRNA for 72 h at 42° C. The filters were washed in: a) 2×SSC-0.1% SDS at 37° C. for 30 min; b) 200 ng/ml RNase A in 2×SSC at room temperature for 5 min; and c) 0.1×SSC-0.1% SDS at 42° C. for 30 min.

c-Jun gene expression = settings: other studies; cited from earlier work
RIT-3 cells = experiment: GAL4-Jun chimeric / G5BCAT co-transfection CAT assay; type: cell-based, human
Source text: HeLa and RIT-3 cells were transfected with two plasmids. Plasmid pSG-Jun5-253 contained the SV40 promoter (not transcriptionally responsive to radiation) upstream of an encoding region that encoded a chimeric protein (GAL4-Jun) comprising a sequence for Δ, A1, and A2 (Baichwal, 1990) and the DNA binding domain of the yeast GAL4 gene (the DNA binding domain of Jun was replaced with the DNA binding domain of the GAL4 gene, Baichwal, 1990). A second plasmid, G5BCAT was constructed to contain the DNA sequence that binds Gal4 protein placed 5′ of the Elb TATA box and upstream of the CAT reporter gene (Baichwal, 1990).
Two plasmids were transfected into HeLa and RIT-3 cells to study activation of the transcriptional potential of Jun protein following irradiation. pSG-Jun5-253 contains the SV40 promoter, which is not transcriptionally responsive to radiation, upstream of the coding sequence for Δ, A1, and A2 (Baichwal, 1990). The DNA binding domain of Jun was replaced with the DNA binding domain of the yeast GAL4 gene which encodes a protein involved in yeast transcriptional regulation (Baichwal, 1990). A second plasmid, G5BCAT contains the DNA sequence which binds Gal4 protein placed 5′ of the E1b TATA box upstream of the CAT reporter gene (Baichwal, 1990). […]

[3] = test system: Egr-1 and Jun transcripts in cell lines 293 and SQ-20B; experiment: Northern blot of Egr-1 and Jun transcripts after x-irradiation with inhibitors; type: cell-based; settings: for effect on x-ray-induced increase in Egr-1 and Jun transcripts: treatment prior to irradiation
Method: Cell line SQ-20B was pretreated with 1 μM TPA for 40 hours to down regulate PKC and then stimulated with TPA, serum, or x-ray (20 Gy). Controls included x-ray without TPA pretreatment, TPA (50 nM) without TPA pretreatment and untreated cells. RNA was isolated after one hour and hybridized to Egr-1. SQ-20B cells were preincubated with 100 μM H7 (1-(5-isoquinolinylsulfonyl)-2-methyl piperazine) or 100 μM HA1004 (N-[2-methyl-amino]ethyl)-5-isoquino-linesulfonamide) (Seikagaku America, Inc., St. Petersberg, Fla.) for 30 minutes or TPA pretreatment (1 μM) for 40 hours and followed by exposure to 20 Gy x-irradiation. RNA was extracted one hour after irradiation. Positive control cells treated under the same conditions but in the absence of inhibitor also received 20 Gy, while negative control cells received neither H7 nor X-ray. RNA was extracted at one hour after 20 Gy without inhibitor. Northern blots were hybridized to Egr-1 or 7S. 293 cells pretreated with the above inhibitors were irradiated, RNA was extracted after 3 hours and the Northern blot was hybridized to Jun and 7S probes.

cell line STSAR-33 = experiment: Colony-forming radiation-survival assay with TNF-α; type: cell-based, human
cell line HNSCC-68 = experiment: Colony-forming radiation-survival assay with TNF-α; type: cell-based, human; settings: nonlethal TNF-α 10 units/ml
[4] = test system: 12 human epithelial tumor cell lines; settings: cited from earlier work
cell line STSAR-5 = experiment: Colony-forming radiation-survival assay with TNF-α; type: cell-based, human; settings: STSAR-5, 100-700 cGy
[5] = test system: TNF-α-producing sarcomas (STSAR-5, -13, -33, and -43)
cell line SQ-20B = experiment: Colony-forming radiation-survival assay with TNF-α; type: cell-based, human
[6] = test system: Cell lines STSAR-13 and STSAR-43; experiment: Colony-forming radiation-survival assay with TNF-α; type: cell-based, human

## CC(=O)N[C@@H](CS)C(=O)O [NAC, N-acetyl-L-cysteine]
HL-205 cells; 30 mM
  effect on constitutive levels of c-Jun transcripts: little if any effect on constitutive levels of c-Jun transcripts
  inhibition of x-ray-induced increases in c-Jun expression: over 90%
HL-525 cells [1]
  effect on H2O2-induced c-Jun expression: similarly inhibited
  effect on ara-C-induced c-Jun gene induction: no detectable effect on induction of the c-Jun gene; also recorded: no detectable effect on ara-C-induced increases in c-Jun transcripts
  effect on x-ray-induced c-Jun expression: inhibited
HL-525 cells [2]
  inhibition of radiation-increased rate of c-Jun transcription: ~90%

## OO [Plasmid H2O2, H2O2]
HL-525 cells [1]
  effect of agent alone on c-Jun expression: transiently induced c-Jun expression; also recorded: increased c-Jun expression

## CC1CNCCN1S(=O)(=O)c1cccc2cnccc12 (centres unmarked) [Plasmid H7, 1-(5-isoquinolinylsulfonyl)-2-methyl piperazine]
c-Jun gene expression
  effect on x-ray-induced c-Jun expression: block x-ray-induced c-Jun gene product expression; also recorded: inhibited
RIT-3 cells; added to RIT-3 cells transfected with pSG-Jun5-235 and G5BCAT
  effect on x-ray induced increase in CAT activity: abrogated the x-ray induced increase in CAT activity
[3]
  effect on x-ray-induced increase in Egr-1 and Jun transcripts: attenuated the increase in Egr-1 and Jun transcripts; also recorded: attenuation of Egr-1 and Jun gene induction by ionizing radiation

## CCCCCCCCCCCCCC(=O)O[C@@H]1[C@@H](C)[C@@]2(O)[C@@H](C=C(CO)C[C@]3(O)C(=O)C(C)=C[C@@H]23)[C@H]2C(C)(C)[C@]12OC(C)=O [TPA, 12-0-tetradecanoylphorbol-13-acetate]
HL-205 cells; agent alone
  effect on c-Jun expression: increases in c-Jun expression that were detectable at 6 hours and reached maximal levels by 24 hours
HL-525 cells [1]
  effect on expression of Jun-B, Jun-D, c-fos, fos-B: little if any effect on expression of these genes
  effect on x-ray-induced c-Jun expression: blocks x-ray-induced increases in c-Jun expression
HL-525 cells [1]; pretreatment
  block of H2O2-induced increases in c-Jun expression: 80%
HL-525 cells [1]; pretreatment 36-39 hours
  block of x-ray induced increases in c-Jun expression: over 75%
RIT-3 cells; HeLa and RIT-3 transfectants with pSG-Jun5-253 and G5BCAT
  increase in CAT activity following TPA stimulation: 3.5 fold
[3]
  effect on x-ray-induced increase in Egr-1 and Jun transcripts: attenuated the increase in Egr-1 and Jun transcripts; also recorded: attenuation of Egr-1 and Jun gene induction by ionizing radiation

## CCC/C=C/C=C/C(=O)O[C@H]1/C(=C/C(=O)OC)C[C@H]2C[C@H]([C@@H](C)O)OC(=O)C[C@H](O)C[C@@H]3C[C@H](OC(C)=O)C(C)(C)[C@](O)(C[C@@H]4C/C(=C/C(=O)OC)C[C@H](/C=C/C(C)(C)[C@]1(O)O2)O4)O3 [bryostatin]
HL-525 cells [1]
  effect on H2O2-induced c-Jun expression: no detectable effect
  effect on x-ray-induced c-Jun expression: little if any effect on the induction of c-Jun transcripts by ionizing radiation

## C[C@@H]1C[C@@H]([C@H](O)CC2CC(=O)NC(=O)C2)C(=O)[C@@H](C)C1 [cycloheximide]
[3]; 293 cells pretreated with CHI
  Jun mRNA after irradiation in pretreated cells: persistent elevation of Jun mRNA at 6 hours
[3]; SQ-20B cells pretreated with CHI
  Egr-1 mRNA after irradiation in pretreated cells: persistent elevation of Egr-1 at 3 hours
[3]; normalized to 7S, no irradiation
  effect of treatment alone on Egr-1 and Jun transcripts: low but detectable increase in Egr-1 and Jun transcripts
[3]
  effect on x-ray-induced increase in Egr-1 and Jun transcripts: superinduction of Jun and Egr-1

## TNF-α
Cell line STSAR-33; STSAR-33, TNF-α 10 units/ml
  interaction between TNF-α and radiation: synergistic; also recorded: enhanced killing by radiation
Cell line STSAR-33; TNF-α 10 units/ml added 20 hr before irradiation, 80.4 cGy without TNF-α
  radiosensitivity (D0): 60.4 cGy
Cell line STSAR-33; TNF-α at 1000 units/ml
  plating efficiency (PE): 30%
Cell line HNSCC-68
  effect on radiation killing: enhanced radiation killing
[4]
  concentrations with cytotoxic effects: 10 to 1000 units/ml
[4]; seven of those ten cell lines
  killing by TNF and x-rays combined: synergistic or additive killing
Cell line STSAR-5
  interaction between TNF-α and radiation: additive
SQ-20B and SCC-61 cells
  cytotoxicity: cytotoxic
SQ-20B and SCC-61 cells; 1000 units/ml
  reduction of plating efficiency (PE): 60-80%
[5]
  cytotoxicity: cytotoxic
[5]; 1000 units/ml
  reduction of plating efficiency (PE): 60-90%
Cell line SQ-20B; SQ-20B, FIG. 1B
  killing with TNF-α alone: 85%
Cell line SQ-20B; TNF-α 1000 units/ml added 24 hr before x-rays, 239 cGy without TNF-α
  radiosensitivity (D0): 130.4 cGy
Cell line SQ-20B; TNF-α added after irradiation
  effect on cell killing by radiation: did not enhance cell killing by radiation
[6]
  interaction between TNF-α and radiation: no interaction was observed
